pIC50: −log10 of the molar value.
System: Plasmodium falciparum
Test: Inhibitory concentration against multidrug-resistant Plasmodium falciparum Dd2.
Type: functional, organism-based

Cc1ccc(CC(=O)Nc2ccc(NC(=O)/C=C/c3ccc(-c4cccc([N+](=O)[O-])c4)o3)cc2C(=O)c2ccccc2)cc1
pIC50: 6.23

Cc1ccc(CC(=O)Nc2ccc(NC(=O)/C=C/c3ccc(-c4cccc5ccccc45)o3)cc2C(=O)c2ccccc2)cc1
pIC50: 6.00

Cc1ccc(CC(=O)Nc2ccc(NC(=O)/C=C/c3ccc(-c4ccc([N+](=O)[O-])cc4)o3)cc2C(=O)c2ccccc2)cc1
pIC50: 7.12

Cc1ccc(CC(=O)Nc2ccc(NC(=O)/C=C/c3ccc(-c4ccccc4)o3)cc2C(=O)c2ccccc2)cc1
pIC50: 6.38

Cc1ccc(CC(=O)Nc2ccc(NC(=O)/C=C/c3ccc(-c4ccc(OC(F)(F)F)cc4)o3)cc2C(=O)c2ccccc2)cc1
pIC50: 6.68

Cc1ccc(CC(=O)Nc2ccc(NC(=O)/C=C/c3ccc(-c4ccc5ccccc5c4)o3)cc2C(=O)c2ccccc2)cc1
pIC50: 6.70

Cc1ccc(CC(=O)Nc2ccc(NC(=O)/C=C/c3ccc(-c4ccccc4[N+](=O)[O-])o3)cc2C(=O)c2ccccc2)cc1
pIC50: 6.17

Cc1ccc(CC(=O)Nc2ccc(NC(=O)/C=C/c3ccc(-c4ccc(C)cc4)o3)cc2C(=O)c2ccccc2)cc1
pIC50: 6.92

Cc1ccc(CC(=O)Nc2ccc(NC(=O)/C=C/c3ccc(-c4ccc(Br)cc4)o3)cc2C(=O)c2ccccc2)cc1
pIC50: 6.90

C=Cc1ccc(-c2ccc(/C=C/C(=O)Nc3ccc(NC(=O)Cc4ccc(C)cc4)c(C(=O)c4ccccc4)c3)o2)cc1
pIC50: 7.07

CCOc1ccc(-c2ccc(/C=C/C(=O)Nc3ccc(NC(=O)Cc4ccc(C)cc4)c(C(=O)c4ccccc4)c3)o2)cc1
pIC50: 6.52

Cc1ccc(CC(=O)Nc2ccc(NC(=O)/C=C/c3ccc(-c4ccc(Cl)cc4)o3)cc2C(=O)c2ccccc2)cc1
pIC50: 6.84

CCCOc1ccc(-c2ccc(/C=C/C(=O)Nc3ccc(NC(=O)Cc4ccc(C)cc4)c(C(=O)c4ccccc4)c3)o2)cc1
pIC50: 6.12

Cc1ccc(CC(=O)Nc2ccc(NC(=O)/C=C/c3ccc(-c4ccc(F)cc4)o3)cc2C(=O)c2ccccc2)cc1
pIC50: 6.49

COc1ccc(-c2ccc(/C=C/C(=O)Nc3ccc(NC(=O)Cc4ccc(C)cc4)c(C(=O)c4ccccc4)c3)o2)cc1
pIC50: 6.89

CCc1ccc(-c2ccc(/C=C/C(=O)Nc3ccc(NC(=O)Cc4ccc(C)cc4)c(C(=O)c4ccccc4)c3)o2)cc1
pIC50: 7.06

CSc1ccc(-c2ccc(/C=C/C(=O)Nc3ccc(NC(=O)Cc4ccc(C)cc4)c(C(=O)c4ccccc4)c3)o2)cc1
pIC50: 7.08

Cc1ccc(CC(=O)Nc2ccc(NC(=O)/C=C/c3ccc(-c4ccc(C(C)(C)C)cc4)o3)cc2C(=O)c2ccccc2)cc1
pIC50: 6.52

— ChEMBL document CHEMBL1135339, “Structure-activity relationships of novel anti-malarial agents. Part 4: N-(3-benzoyl-4-tolylacetylaminophenyl)-3-(5-aryl-2-furyl)acrylic acid amides” (Bioorg Med Chem Lett, 2002)
